Results from patent publication US8653102B2, “Substituted 2-oxo- and 2-thioxo-dihydroquinoline-3-carboxamides as KCNQ2/3 modulators” (Gruenenthal GmbH, priority 2010, dated 2014).

Biological target: T1, KCNQ2/3 channels (Homo sapiens, UniProt O43525+O43526)
T1 construct: expressed in transfected cells; host or cells: CHO-K1 cells kept under selection antibiotics
Experiment: Fluorescence assay using a voltage sensitive dye (fluorimetry)
Format: cell-based
Conditions: CHO-K1 cells expressing KCNQ2/3 channels; for Emax: read-out: Fluorimetry % efficacy (RTG = 100%)
Protocol: Pharmacological Experiments Method I. Fluorescence Assay Using a Voltage Sensitive Dye (Fluorimetry)
[…] CHO-K1 cells expressing KCNQ2/3 channels are cultivated adherently at 37° C., 5% CO2 and 95% humidity in cell culture bottles (e.g. 80 cm^2 TC flasks, Nunc) with DMEM-high glucose (Sigma Aldrich, D7777) including 10% FCS (PAN Biotech, e.g. 3302-P270521) or alternatively MEM Alpha Medium (1×, liquid, Invitrogen, #22571), 10% fetal calf serum (FCS) (Invitrogen, #10270-106, heat-inactivated) and the necessary selection antibiotics.
Before being sown out for the measurements, the cells are washed with 1×DPBS buffer Ca^2+/Mg^2+-free (e.g. Invitrogen, #14190-094) and detached from the bottom of the culture vessel by using Accutase (PAA Laboratories, #L11-007) (incubation with Accutase for 15 min at 37° C.). The cell number is determined using a CASY™ cell counter (TCC, Schärfe System). Depending on the optimal density for each individual cell line, 20,000-30,000 cells/well/100 μl are seeded onto 96-well Corning™ CellBIND™ assay plates (Flat Clear Bottom Black Polystyrene Microplates, #3340). Freshly seeded cells are then left to settle for one hour at room temperature, followed by incubation for 24 hours at 37° C., 5% CO2 and 95% humidity.
The voltage-sensitive fluorescent dye from the Membrane Potential Assay Kit (Red™ Bulk format part R8123 for FLIPR, MDS Analytical Technologies™) is prepared by dissolving the contents of one vessel Membrane Potential Assay Kit Red Component A in 200 ml of extracellular buffer (ES buffer, 120 mM NaCl, 1 mM KCl, 10 mM HEPES, 2 mM CaCl2, 2 mM MgCl2, 10 mM glucose; pH 7.4). After removal of the nutrient medium, the cells are washed once with 200 μl of ES buffer, then loaded for 45 min at room temperature in 100 μl of dye solution in the dark.
Fluorescence measurements are carried out in a BMG Labtech FLUOstar™, BMG Labtech NOVOstar™ or BMG Labtech POLARstar™ instrument (525 nm excitation, 560 nm emission, Bottom Read mode). After incubation with the dye, 50 μl of the test substances in the desired concentrations, or 50 μl of ES buffer for control purposes, are applied to the wells of the assay plate and incubated for 30 min at room temperature while being shielded from light. The fluorescence intensity of the dye is then measured for 5 min and the fluorescence value F1 of each well is thus determined at a given, constant time. 15 μl of a KCl solution are then added to each well (final concentration of potassium ions 92 mM). The change in fluorescence intensity is subsequently monitored until all the relevant values have been obtained (mainly 5-30 min). At a given time post KCl application, a fluorescence value F2 is determined, in this case at the time of the fluorescence peak.
For calculation, the fluorescence intensity F2 is corrected for the fluorescence intensity F1, and the activity (ΔF/F) of the target compound on the potassium channel is determined as follows:
In order to determine whether a substance has agonistic activity,
A substance has an agonistic activity on the potassium channel if
[formula] increases dose dependently.
Calculations of EC50 and IC50 values are carried out with the aid of ‘Prism v4.0’ software (GraphPad Software™).

[1] = relative to retigabine (RTG) = 100%

| Emax [1] [%] | EC50 [nM] | Compound | Fluorimetry % efficacy (RTG = 100%) [1] [%] |
| --- | --- | --- | --- |
| 78 | 2020 | COCCOCCn1c(=O)c(C(=O)NCc2cccc(F)c2)c(C)c2ccc(C(F)(F)F)cc21 [Example 15, N-[(3-fluorophenyl)-methyl]-1-[2-(2-methoxy-ethoxy)-ethyl]-4-methyl-2-oxo-7-(trifluoromethyl)-1H-quinoline-3-carboxylic acid amide] | – |
| 22 | – | COCCn1c(=O)c(C(=O)NCc2cccc(F)c2)c(C)c2ccccc21 [Example 10, N-[(3-fluorophenyl)-methyl]-1-(2-methoxy-ethyl)-4-methyl-2-oxo-1H-quinoline-3-carboxylic acid amide] | – |
| 167 | 406 | CCCn1c(=O)c(C(=O)NCc2cccc(F)c2)c(C)c2ccc(C(F)(F)F)cc21 [Example 11, N-[(3-fluorophenyl)-methyl]-4-methyl-2-oxo-1-propyl-7-(trifluoromethyl)-1H-quinoline-3-carboxylic acid amide] | – |
| 175 | 401 | CCn1c(=O)c(C(=O)NCc2ccc(F)cc2)c(C)c2ccc(C(F)(F)F)cc21 [Example 8, 1-ethyl-N-[(4-fluorophenyl)-methyl]-4-methyl-2-oxo-7-(trifluoromethyl)-1H-quinoline-3-carboxylic acid amide] | – |
| 26 | – | CCC(Cn1c(=O)c(C(=O)NCc2cccc(F)c2)c(C)c2ccc(C(F)(F)F)cc21)OC (stereo not drawn) [Example 32, N-[(3-fluorophenyl)-methyl]-1-(2-methoxy-butyl)-4-methyl-2-oxo-7-(trifluoromethyl)-1H-quinoline-3-carboxylic acid amide] | – |
| 6 | – | Cc1c(C(=O)N(C)c2cccc(F)c2)c(=O)n(CCC(=O)O)c2cc(C(F)(F)F)ccc12 [Example 29, 3-[3-[(3-fluorophenyl)-methyl-carbamoyl]-4-methyl-2-oxo-7-(trifluoromethyl)-1H-quinolin-1-yl]-propionic acid] | – |
| 118 | 114 | COCC(C)n1c(=O)c(C(=O)NCc2cccc(F)c2)c(C)c2ccc(C(F)(F)F)cc21 (stereo not drawn) [Example 35, N-[(3-fluorophenyl)-methyl]-1-(2-methoxy-1-methyl-ethyl)-4-methyl-2-oxo-7-(trifluoromethyl)-1H-quinoline-3-carboxylic acid amide] | – |
| 231 | 167 | COCCn1c(=O)c(C(=O)NCCCC(C)(C)C)c(C)c2ccc(C(F)(F)F)cc21 [Example 24, N-(4,4-dimethyl-pentyl)-1-(2-methoxy-ethyl)-4-methyl-2-oxo-7-(trifluoromethyl)-1H-quinoline-3-carboxylic acid amide] | – |
| 190 | 215 | COc1c(C(=O)NCc2cccc(F)c2)c(=O)n(C)c2cc(C(F)(F)F)ccc12 [Example 45, N-[(3-fluorophenyl)-methyl]-4-methoxy-1-methyl-2-oxo-7-(trifluoromethyl)-1H-quinoline-3-carboxylic acid amide] | – |
| 160 | 1830 | Cc1c(C(=O)NCc2cccc(F)c2)c(=O)n(CCO)c2cc(C(F)(F)F)ccc12 [Example 38, N-[(3-fluorophenyl)-methyl]-1-(2-hydroxy-ethyl)-4-methyl-2-oxo-7-(trifluoromethyl)-1H-quinoline-3-carboxylic acid amide] | – |
| 145 | 75 | Cc1c(C(=O)NCc2cccc(F)c2)c(=O)n(C(C)C)c2cc(C(F)(F)F)ccc12 [Example 40, N-[(3-fluorophenyl)-methyl]-1-isopropyl-4-methyl-2-oxo-7-(trifluoromethyl)-1H-quinoline-3-carboxylic acid amide] | – |

Second part, the compound before the results:

| Compound | Emax [1] [%] | EC50 [nM] | Fluorimetry % efficacy (RTG = 100%) [1] [%] |
| --- | --- | --- | --- |
| Cc1c(C(=O)NCc2cccc(F)c2)c(=O)n(CCC(C)C)c2cc(C(F)(F)F)ccc12 [Example 12, N-[(3-fluorophenyl)-methyl]-4-methyl-1-(3-methyl-butyl)-2-oxo-7-(trifluoromethyl)-1H-quinoline-3-carboxylic acid amide] | 33 | – | – |
| COC(C)Cn1c(=O)c(C(=O)NCc2cccc(F)c2)c(C)c2ccc(C(F)(F)F)cc21 (stereo not drawn) [Example 43, N-[(3-fluorophenyl)-methyl]-1-(2-methoxy-propyl)-4-methyl-2-oxo-7-(trifluoromethyl)-1H-quinoline-3-carboxylic acid amide] | 100 | 1680 | – |
| CCCCn1c(=O)c(C(=O)NCc2cccc(F)c2)c(C)c2ccc(C(F)(F)F)cc21 [Example 2, 1-butyl-N-[(3-fluorophenyl)-methyl]-4-methyl-2-oxo-7-(trifluoromethyl)-1H-quinoline-3-carboxylic acid amide] | 90 | 235 | – |
| Cc1c(C(=O)NCc2cccc(F)c2)c(=O)n(C)c2cc(Cl)ccc12 [Example 37, 7-chloro-N-[(3-fluorophenyl)-methyl]-1,4-dimethyl-2-oxo-1H-quinoline-3-carboxylic acid amide] | 139 | 729 | – |
| Cc1c(C(=O)NCc2cccc(F)c2)c(=O)n(CCCC(C)C)c2cc(C(F)(F)F)ccc12 [Example 13, N-[(3-fluorophenyl)-methyl]-4-methyl-1-(4-methyl-pentyl)-2-oxo-7-(trifluoromethyl)-1H-quinoline-3-carboxylic acid amide] | 3 | – | – |
| CCC(COC)n1c(=O)c(C(=O)NCc2cccc(F)c2)c(C)c2ccc(C(F)(F)F)cc21 (stereo not drawn) [Example 30, N-[(3-fluorophenyl)-methyl]-1-[1-(methoxymethyl)-propyl]-4-methyl-2-oxo-7-(trifluoromethyl)-1H-quinoline-3-carboxylic acid amide] | 133 | 193 | – |
| Cc1c(C(=O)N(C)c2cccc(F)c2)c(=O)n(CC(=O)O)c2cc(C(F)(F)F)ccc12 [Example 28, 2-[3-[(3-fluorophenyl)-methyl-carbamoyl]-4-methyl-2-oxo-7-(trifluoromethyl)-1H-quinolin-1-yl]-acetic acid] | 16 | – | – |
| Cc1c(C(=O)NCc2cccc(F)c2)c(=O)n(C2CCOCC2)c2cc(C(F)(F)F)ccc12 [Example 44, N-[(3-fluorophenyl)-methyl]-4-methyl-2-oxo-1-tetrahydro-pyran-4-yl-7-(trifluoromethyl)-1H-quinoline-3-carboxylic acid amide] | 36 | – | – |
| Cc1c(C(=O)NCc2ccc(F)cc2)c(=O)n(C)c2cc(C#N)ccc12 [Example 21, 7-cyano-N-[(4-fluorophenyl)-methyl]-1,4-dimethyl-2-oxo-1H-quinoline-3-carboxylic acid amide] | 136 | 837 | – |
| CCCCCn1c(=O)c(C(=O)NCc2cccc(F)c2)c(C)c2ccc(C(F)(F)F)cc21 [Example 41, N-[(3-fluorophenyl)-methyl]-4-methyl-2-oxo-1-pentyl-7-(trifluoromethyl)-1H-quinoline-3-carboxylic acid amide] | 18 | – | – |
| Cc1c(C(=O)NCc2cccc(F)c2)c(=O)n(C)c2cc(OC(F)(F)F)ccc12 [Example 33, N-[(3-fluorophenyl)-methyl]-1,4-dimethyl-2-oxo-7-(trifluoromethyloxy)-1H-quinoline-3-carboxylic acid amide] | 138 | 386 | – |
| Cc1c(C(=O)NCc2cccc(F)c2)c(=O)n(C)c2cc(C#N)ccc12 [Example 20, 7-cyano-N-[(3-fluorophenyl)-methyl]-1,4-dimethyl-2-oxo-1H-quinoline-3-carboxylic acid amide] | 143 | 1270 | – |
| CCn1c(=O)c(C(=O)NCc2cccc(F)c2)c(C)c2ccc(C(F)(F)F)cc21 [Example 5, 1-ethyl-N-[(3-fluorophenyl)-methyl]-4-methyl-2-oxo-7-(trifluoromethyl)-1H-quinoline-3-carboxylic acid amide] | 173 | 381 | – |
| 2-[3-[(3-fluorophenyl)-methyl-carbamoyl]-4-methyl-2-oxo-7-(trifluoromethyl)-1H-quinolin-1-yl]-acetic acid methyl ester [Example 26] | – | 1010 | 108 |
